PubChem BioAssay (NCI)
Values joined by “and” are separate entries in the source; they are usually repeats but may differ in a detail not shown here. Identical values can stand only once.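 Dose response: 5 concentrations. Exposure: 48 h. Format: 96-well plates. Endpoint: linear interpolation; highest concentration if not reached. GI50 = concentration required for 50% inhibition of growth. Definition used: TGI = concentration required for complete inhibition of growth.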

Key:
Experiment in all cases: NCI tumour cell line growth inhibition, 48 h
[1] = system: 786-0 renal
[2] = system: ACHN renal
[3] = system: HOP-62 NSCLC
[4] = system: MDA-MB-435
[5] = system: NCI-H226 lung
[6] = system: NCI-H460 lung
[7] = system: SNB-19 CNS
[8] = system: TK-10 renal
[9] = system: UACC-62 melanoma
[10] = system: HCC-2998 colon

Row | SMILES | TGI [1] | TGI [2] | TGI [3] | TGI [4] | TGI [5] | TGI [6] | TGI [7] | TGI [8] | TGI [9] | TGI [10] | GI50 [2] | GI50 [6] | GI50 [9]
1 | c1ccc([P+](c2ccccc2)(c2ccccc2)c2ccc([P+](c3ccccc3)(c3ccccc3)c3ccccc3)cc2)cc1 | > 100 µM | > 100 µM | > 100 µM | > 100 µM | > 100 µM | > 100 µM | > 100 µM | > 100 µM | > 100 µM | – | – | – | –
2 | CCOC(=O)C1CCCCc2sc(N)c(C#N)c21 (stereo unspecified) | > 100 µM | > 100 µM | > 100 µM | – | > 100 µM | > 100 µM | > 100 µM | > 100 µM | > 100 µM | > 100 µM | – | – | –
3 | COC(=O)/C=C/c1ccc2c(c1)CC1(Cc3ccccc3C1)C2 | > 100 µM | > 100 µM | > 100 µM | > 100 µM | > 100 µM | – | – | > 100 µM | > 100 µM | > 100 µM | – | – | –
4 | Cc1cn([C@H]2[C@@H](CO)C[C@H]2O)c(=O)[nH]c1=O | > 100 µM | > 100 µM | > 100 µM | > 100 µM | > 100 µM | > 100 µM | – | > 100 µM | – | > 100 µM | – | – | –
5 | COc1ccc(C=Nc2ccc(-c3nc4ccccc4[nH]3)cc2)cc1OC | > 100 µM | > 100 µM | > 100 µM | > 100 µM | > 100 µM | > 100 µM | > 100 µM | > 100 µM | – | – | – | – | –
6 | COc1ccc(-c2c3ccccc3c(-c3ccc(OCCCCCBr)cc3)c3ccccc23)cc1 | – | > 100 µM | > 100 µM | – | > 100 µM | > 100 µM | > 100 µM | > 100 µM | > 100 µM | > 100 µM | – | – | –
7 | O=S1(=O)OCCOS(=O)(=O)C1Cc1nc2ccccc2[nH]1 | > 100 µM | > 100 µM | > 100 µM | > 100 µM | – | > 100 µM | > 100 µM | > 100 µM | – | > 100 µM | – | – | –
8 | COc1cc2cc(C(=O)N3CC(CCl)c4c3cc([N+](C)(C)Cc3ccc([N+](=O)[O-])n3C)c3ccccc43)[nH]c2c(OC)c1OC (stereo unspecified) | – | > 100 µM | > 100 µM | 60.7 µM | – | 5.41 µM | > 100 µM | 14.3 µM | 3.14 µM | 2.48 µM | – | – | –
9 | CO[P@]1(=O)O[C@@H](c2ccccc2)[C@H](O)[C@@]1(O)c1ccccc1 | > 100 µM | > 100 µM | – | > 100 µM | > 100 µM | > 100 µM | > 100 µM | > 100 µM | > 100 µM | – | – | – | –
10 | Nc1c(N=Nc2ccc(-c3ccc(N=Nc4c(O)ccc5cc(S(=O)(=O)O)cc(S(=O)(=O)O)c45)cc3)cc2)c(S(=O)(=O)O)cc2cc(S(=O)(=O)O)c(N=Nc3ccccc3)c(O)c12 | – | – | > 100 µM | – | > 95 µM | > 100 µM | > 100 µM | – | > 100 µM | > 100 µM | – | – | –
11 | COc1ccc(C2=C(OC(=O)N(C)C)c3cccn3-c3cc(Cl)ccc3S2)cc1 | > 10 µM | – | > 10 µM | > 10 µM | – | – | – | > 10 µM | > 10 µM | > 10 µM | – | – | –
12 | CC12CC(c3ccccc3O1)C(C(=O)Nc1cccc(F)c1)C(=O)N2 (stereo unspecified) | > 100 µM | > 100 µM | > 100 µM | > 100 µM | – | > 100 µM | > 100 µM | – | > 100 µM | > 100 µM | – | – | –
13 | OC12CCCCCC1(N1CCOCC1)c1ccccc12 (stereo unspecified) | > 100 µM | > 100 µM | > 100 µM | – | > 100 µM | > 100 µM | > 100 µM | > 100 µM | > 100 µM | > 100 µM | – | – | –
14 | COC(=O)n1c(C[P+](c2ccccc2)(c2ccccc2)c2ccccc2)cc2ccccc21 | 12.8 µM | 14.9 µM | 4.57 µM | – | 5.95 µM | 12.2 µM | 10.8 µM | 9.12 µM | 16.3 µM | 10.3 µM | – | – | –
15 | CC(C)(C)CC(C)(C)c1ccc(OCCOCC[N+](C)(C)Cc2ccccc2)cc1 | 24.4 µM | 32.9 µM and 26.7 µM | 33.5 µM | – | 15.7 µM | 3.43 µM and 11.7 µM | 11.9 µM | 17.3 µM | 2.09 µM and 2.67 µM | 4.05 µM | 6.95 µM | 1.58 µM | 0.678 µM
16 | COc1ccc(-c2nc(-c3cnccn3)n(C3OC(CO)C(O)C(O)C3O)n2)cc1 (stereo unspecified) | > 100 µM | – | > 100 µM | > 100 µM | – | > 100 µM | > 100 µM | > 100 µM | > 100 µM | > 100 µM | – | – | –
17 | CC(=O)NC1=C(NCC(C)C)C(=O)c2ccccc2C1=O | 31.9 µM | > 100 µM | > 100 µM | – | 29.5 µM | > 100 µM | > 100 µM | 40.9 µM | 34.7 µM | > 100 µM | – | – | –
